Measurements taken from patent publication US9579314B2 (priority 2015, dated 2017).
pIC50: −log10 of the molar value.

Experiments:
[1] = molecular target: Human M3 receptor (Homo sapiens, UniProt P20309); settings: read-out: M3 binding affinity
[2] = molecular target: Human β2 adrenoceptor (Homo sapiens, UniProt P07550); settings: read-out: B2 binding affinity
Human β2 adrenoceptor, sequence (P07550 whole entry): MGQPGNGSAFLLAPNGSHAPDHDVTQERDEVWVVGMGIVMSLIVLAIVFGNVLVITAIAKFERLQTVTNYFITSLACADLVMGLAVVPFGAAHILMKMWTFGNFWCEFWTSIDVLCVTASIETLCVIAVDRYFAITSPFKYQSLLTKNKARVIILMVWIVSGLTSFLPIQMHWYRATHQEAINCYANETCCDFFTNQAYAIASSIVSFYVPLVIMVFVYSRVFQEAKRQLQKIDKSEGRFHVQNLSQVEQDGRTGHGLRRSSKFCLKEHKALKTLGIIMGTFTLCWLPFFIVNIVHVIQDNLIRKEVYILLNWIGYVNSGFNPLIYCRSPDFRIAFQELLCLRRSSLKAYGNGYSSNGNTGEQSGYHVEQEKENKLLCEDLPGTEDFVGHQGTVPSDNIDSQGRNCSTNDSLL

Human M3 receptor, sequence (P20309 whole entry): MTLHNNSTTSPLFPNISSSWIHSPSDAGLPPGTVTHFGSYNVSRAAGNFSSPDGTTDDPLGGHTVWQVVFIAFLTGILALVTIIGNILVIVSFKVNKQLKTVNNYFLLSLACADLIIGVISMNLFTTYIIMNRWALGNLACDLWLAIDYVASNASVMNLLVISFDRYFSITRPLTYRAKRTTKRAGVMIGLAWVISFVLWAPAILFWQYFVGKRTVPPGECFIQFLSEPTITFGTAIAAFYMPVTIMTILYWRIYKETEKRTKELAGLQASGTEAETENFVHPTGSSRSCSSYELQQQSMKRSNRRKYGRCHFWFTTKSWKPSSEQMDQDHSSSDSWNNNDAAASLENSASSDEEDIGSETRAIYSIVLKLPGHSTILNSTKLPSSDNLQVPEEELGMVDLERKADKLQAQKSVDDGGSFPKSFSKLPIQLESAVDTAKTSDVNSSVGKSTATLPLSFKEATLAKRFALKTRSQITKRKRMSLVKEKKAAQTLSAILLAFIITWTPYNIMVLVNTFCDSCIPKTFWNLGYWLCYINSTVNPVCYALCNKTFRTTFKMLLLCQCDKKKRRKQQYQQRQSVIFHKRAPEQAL

SMILES	pIC50 [1]	pIC50 [2]
O=C(N[C@@H]1CCCN(C(=O)COc2cccc([C@](O)(C(=O)OCC3CCN(Cc4ccccc4)CC3)c3ccccc3)c2)C1)c1ccc(CCNC[C@H](O)c2ccc(O)c3[nH]c(=O)ccc23)cc1 [Compound 113, (1-benzylpiperidin-4-yl)methyl (S)-2-hydroxy-2-(3-(2-((R)-3-(4-(2-(((R)-2-hydroxy-2-(8-hydroxy-2-oxo-1,2-dihydroquinolin-5-yl)ethyl)amino)ethyl)benzamido)piperidin-1-yl)-2-oxoethoxy)phenyl)-2-phenylacetate]	8.52 to 9.52	8.52 to 9.52
O=C(N[C@H]1C[C@H](NC(=O)c2ccc(COc3cccc([C@](O)(C(=O)OCC4CCN(Cc5ccccc5)CC4)c4ccccc4)c3)cc2)C1)c1ccc(CCNC[C@H](O)c2ccc(O)c3[nH]c(=O)ccc23)cc1 [Compound 114, (1-Benzylpiperidin-4-yl)methyl (S)-2-hydroxy-2-(3-((4-(((1R,3S)-3-(4-(2-(((R)-2-hydroxy-2-(8-hydroxy-2-oxo-1,2-dihydroquinolin-5-yl)ethyl)amino)-ethyl)benzamido)cyclobutyl)carbamoyl)benzyl)oxy)phenyl)-2-phenylacetate]	8.52 to 9.52	8.52 to 9.52
O=C(c1ccc(CCNC[C@H](O)c2ccc(O)c3[nH]c(=O)ccc23)cc1)N1CCC2(CC1)CCN(C(=O)c1ccc(COc3cccc([C@](O)(C(=O)OCC4CCN(Cc5ccccc5)CC4)c4ccccc4)c3)cc1)CC2 [Compound 115, (1-benzylpiperidin-4-yl)methyl (S)-2-hydroxy-2-(3-((4-(9-(4-(2-(((R)-2-hydroxy-2-(8-hydroxy-2-oxo-1,2-dihydroquinolin-5-yl)ethyl)amino)ethyl)benzoyl)-3,9-diazaspiro[5.5]undecane-3-carbonyl)benzyl)oxy)phenyl)-2-phenylacetate]	8.52 to 9.52	8.52 to 9.52
O=C(c1ccc(CCNC[C@H](O)c2ccc(O)c3[nH]c(=O)ccc23)cc1)N1CC2(C1)CN(C(=O)c1ccc(COc3cccc([C@](O)(C(=O)OCC4CCN(Cc5ccccc5)CC4)c4ccccc4)c3)cc1)C2 [Compound 116, (1-benzylpiperidin-4-yl)methyl (S)-2-hydroxy-2-(3-((4-(6-(4-(2-(((R)-2-hydroxy-2-(8-hydroxy-2-oxo-1,2-dihydroquinolin-5-yl)ethyl)amino)ethyl)benzoyl)-2,6-diazaspiro[3.3]heptane-2-carbonyl)benzyl)oxy)phenyl)-2-phenylacetate]	8.52 to 9.52	> 9.52
O=C(c1ccc(CCNC[C@H](O)c2ccc(O)c3[nH]c(=O)ccc23)cc1)N1CCC2(CC1)CN(C(=O)c1ccc(COc3cccc([C@](O)(C(=O)OCC4CCN(Cc5ccccc5)CC4)c4ccccc4)c3)cc1)C2 [Compound 117, (1-benzylpiperidin-4-yl)methyl (S)-2-hydroxy-2-(3-((4-(7-(4-(2-(((R)-2-hydroxy-2-(8-hydroxy-2-oxo-1,2-dihydroquinolin-5-yl)ethyl)amino)ethyl)benzoyl)-2,7-diazaspiro[3.5]nonane-2-carbonyl)benzyl)oxy)phenyl)-2-phenylacetate]	8.52 to 9.52	> 9.52
O=C(c1ccc(CCNC[C@H](O)c2ccc(O)c3[nH]c(=O)ccc23)cc1)N1CCN(C(=O)c2ccc(COc3cccc([C@](O)(C(=O)OCC4CCN(Cc5ccccc5)CC4)c4ccccc4)c3)cc2)CC1 [Compound 118, (1-benzylpiperidin-4-yl)methyl (S)-2-hydroxy-2-(3-((4-(4-(4-(2-(((R)-2-hydroxy-2-(8-hydroxy-2-oxo-1,2-dihydroquinolin-5-yl)ethyl)amino)ethyl)benzoyl)piperazine-1-carbonyl)benzyl)oxy)phenyl)-2-phenylacetate]	> 9.52	8.52 to 9.52
O=C(c1ccc(COc2cccc([C@](O)(C(=O)OCC3CCN(Cc4ccccc4)CC3)c3ccccc3)c2)cc1)N1CCC2(CC1)CN(C(=O)c1ccc(CCNC[C@H](O)c3ccc(O)c4[nH]c(=O)ccc34)cc1)C2 [Compound 119, (1-benzylpiperidin-4-yl)methyl (S)-2-hydroxy-2-(3-((4-(2-(4-(2-(((R)-2-hydroxy-2-(8-hydroxy-2-oxo-1,2-dihydroquinolin-5-yl)ethyl)amino)ethyl)benzoyl)-2,7-diazaspiro[3.5]nonane-7-carbonyl)benzyl)oxy)phenyl)-2-phenylacetate]	> 9.52	8.52 to 9.52
O=C(c1ccc(CCNC[C@H](O)c2ccc(O)c3[nH]c(=O)ccc23)cc1)N1CCCC2(C1)CN(C(=O)c1ccc(COc3cccc([C@](O)(C(=O)OCC4CCN(Cc5ccccc5)CC4)c4ccccc4)c3)cc1)C2 [Compound 120, (1-benzylpiperidin-4-yl)methyl (S)-2-hydroxy-2-(3-((4-(6-(4-(2-(((R)-2-hydroxy-2-(8-hydroxy-2-oxo-1,2-dihydroquinolin-5-yl)ethyl)amino)ethyl)benzoyl)-2,6-diazaspiro[3.5]nonane-2-carbonyl)benzyl)oxy)phenyl)-2-phenylacetate]	> 9.52	> 9.52
O=C(c1ccc(CCNC[C@H](O)c2ccc(O)c3[nH]c(=O)ccc23)cc1)N1CCC2(CC1)CN(C(=O)c1ccc(COc3cccc([C@](O)(C(=O)OCC4CCN(Cc5ccccc5)CC4)c4ccccc4)c3)cc1)CCO2 [Compound 121, (1-benzylpiperidin-4-yl)methyl (S)-2-hydroxy-2-(3-((4-(9-(4-(2-(((R)-2-hydroxy-2-(8-hydroxy-2-oxo-1,2-dihydroquinolin-5-yl)ethyl)amino)ethyl)benzoyl)-1-oxa-4,9-diazaspiro[5.5]undecane-4-carbonyl)benzyl)oxy)phenyl)-2-phenylacetate]	> 9.52	> 9.52
O=C(c1ccc(CCNC[C@H](O)c2ccc(O)c3[nH]c(=O)ccc23)cc1)N1CCC2(CCCN(C(=O)c3ccc(COc4cccc([C@](O)(C(=O)OCC5CCN(Cc6ccccc6)CC5)c5ccccc5)c4)cc3)C2)CC1 [Compound 122, (1-benzylpiperidin-4-yl)methyl (S)-2-hydroxy-2-(3-((4-(9-(4-(2-(((R)-2-hydroxy-2-(8-hydroxy-2-oxo-1,2-dihydroquinolin-5-yl)ethyl)amino)ethyl)benzoyl)-2,9-diazaspiro[5.5]undecane-2-carbonyl)benzyl)oxy)phenyl)-2-phenylacetate]	8.52 to 9.52	< 8.52
O=C(N[C@H]1C[C@H](NC(=O)c2ccc(COc3cccc([C@](O)(C(=O)OCC4CCN(Cc5ccccc5)CC4)c4ccccc4)c3)cc2)C1)c1ccc(CNC[C@H](O)c2ccc(O)c3[nH]c(=O)ccc23)cc1 [Compound 123, (1-benzylpiperidin-4-yl)methyl (S)-2-hydroxy-2-(3-((4-(((1R,3S)-3-(4-((((R)-2-hydroxy-2-(8-hydroxy-2-oxo-1,2-dihydroquinolin-5-yl)ethyl)amino)methyl)benzamido)cyclobutyl)carbamoyl)benzyl)oxy)phenyl)-2-phenylacetate]	8.52 to 9.52	8.52 to 9.52
COc1cc(C(=O)N[C@H]2C[C@H](NC(=O)c3ccc(COc4cccc([C@](O)(C(=O)OCC5CCN(Cc6ccccc6)CC5)c5ccccc5)c4)cc3)C2)ccc1CNC[C@H](O)c1ccc(O)c2[nH]c(=O)ccc12 [Compound 124, (1-benzylpiperidin-4-yl)methyl (S)-2-hydroxy-2-(3-((4-(((1R,3S)-3-(4-((((R)-2-hydroxy-2-(8-hydroxy-2-oxo-1,2-dihydroquinolin-5-yl)ethyl)amino)methyl)-3-methoxybenzamido)cyclobutyl)carbamoyl)benzyl)oxy)phenyl)-2-phenylacetate]	8.52 to 9.52	8.52 to 9.52
O=C(NCCNC(=O)c1ccc(COc2cccc([C@](O)(C(=O)OCC3CCN(Cc4ccccc4)CC3)c3ccccc3)c2)cc1)c1ccc(CNC[C@H](O)c2ccc(O)c3[nH]c(=O)ccc23)cc1 [Compound 125, (1-benzylpiperidin-4-yl)methyl (S)-2-hydroxy-2-(3-((4-((2-(4-((((R)-2-hydroxy-2-(8-hydroxy-2-oxo-1,2-dihydroquinolin-5-yl)ethyl)amino)methyl)benzamido)ethyl)carbamoyl)benzyl)oxy)phenyl)-2-phenylacetate]	8.52 to 9.52	8.52 to 9.52
COc1cc(C(=O)NCCNC(=O)c2ccc(COc3cccc([C@](O)(C(=O)OCC4CCN(Cc5ccccc5)CC4)c4ccccc4)c3)cc2)ccc1CNC[C@H](O)c1ccc(O)c2[nH]c(=O)ccc12 [Compound 126, (1-benzylpiperidin-4-yl)methyl (S)-2-hydroxy-2-(3-((4-((2-(4-((((R)-2-hydroxy-2-(8-hydroxy-2-oxo-1,2-dihydroquinolin-5-yl)ethyl)amino)methyl)-3-methoxybenzamido)ethyl)carbamoyl)benzyl)oxy)phenyl)-2-phenylacetate]	8.52 to 9.52	8.52 to 9.52
O=C(COc1cccc([C@](O)(C(=O)OCC2CCN(Cc3ccccc3)CC2)c2ccccc2)c1)N[C@H]1C[C@H](NC(=O)c2ccc(CNC[C@H](O)c3ccc(O)c4[nH]c(=O)ccc34)c(O)c2)C1 [Compound 127, (1-Benzylpiperidin-4-yl)methyl (S)-2-hydroxy-2-(3-(2-(((1R,3S)-3-(3-hydroxy-4-((((R)-2-hydroxy-2-(8-hydroxy-2-oxo-1,2-dihydroquinolin-5-yl)ethyl)amino)methyl)-benzamido)cyclobutyl)amino)-2-oxoethoxy)phenyl)-2-phenylacetate]	> 9.52	> 9.52
O=C(COc1cccc([C@](O)(C(=O)OCC2CCN(Cc3ccccc3)CC2)c2ccccc2)c1)N[C@H]1C[C@H](NC(=O)c2ccc(CNC[C@H](O)c3ccc(O)c4[nH]c(=O)ccc34)cc2F)C1 [Compound 128, (S)-(1-benzylpiperidin-4-yl)methyl 2-(3-(2-(((1R,3S)-3-(2-fluoro-4-((((R)-2-hydroxy-2-(8-hydroxy-2-oxo-1,2-dihydroquinolin-5-yl)ethyl)amino)methyl)benzamido)cyclobutyl)amino)-2-oxoethoxy)phenyl)-2-hydroxy-2-phenylacetate]	8.52 to 9.52	> 9.52
